The values below are quoted from earlier work in US9738710B2, “Method of treating a patient for pain by administering an anti-ion channel antibody” (UCB Biopharma SPRL, priority 2009, dated 2017).

For series [1], the target named is T1, hNav1.7 (Homo sapiens, UniProt Q15858). Conditions: read-out: FRET-based Assay hNav1.7.
Another series addresses hNav1.8 (Homo sapiens, UniProt Q9Y5Y9). The conditions noted are these: read-out: FRET-based Assay hNav1.8.
For series [2], the target named is T1, hNav1.7. Conditions: read-out: Electrophysiology hNav1.7.
For series [3], the target named is T2, hNav1.5 (Homo sapiens, UniProt Q14524). Conditions: read-out: Electrophysiology hNav1.5.
The target in series [4] is T2, hNav1.5. The conditions noted are these: read-out: FRET-based Assay hNav1.5.
For series [5] the following is noted: neuropathic pain patients (Dworkin, 2002).

Read-outs that look alike come from different tables or passages of the source.

T1 sequence (Q15858 whole entry): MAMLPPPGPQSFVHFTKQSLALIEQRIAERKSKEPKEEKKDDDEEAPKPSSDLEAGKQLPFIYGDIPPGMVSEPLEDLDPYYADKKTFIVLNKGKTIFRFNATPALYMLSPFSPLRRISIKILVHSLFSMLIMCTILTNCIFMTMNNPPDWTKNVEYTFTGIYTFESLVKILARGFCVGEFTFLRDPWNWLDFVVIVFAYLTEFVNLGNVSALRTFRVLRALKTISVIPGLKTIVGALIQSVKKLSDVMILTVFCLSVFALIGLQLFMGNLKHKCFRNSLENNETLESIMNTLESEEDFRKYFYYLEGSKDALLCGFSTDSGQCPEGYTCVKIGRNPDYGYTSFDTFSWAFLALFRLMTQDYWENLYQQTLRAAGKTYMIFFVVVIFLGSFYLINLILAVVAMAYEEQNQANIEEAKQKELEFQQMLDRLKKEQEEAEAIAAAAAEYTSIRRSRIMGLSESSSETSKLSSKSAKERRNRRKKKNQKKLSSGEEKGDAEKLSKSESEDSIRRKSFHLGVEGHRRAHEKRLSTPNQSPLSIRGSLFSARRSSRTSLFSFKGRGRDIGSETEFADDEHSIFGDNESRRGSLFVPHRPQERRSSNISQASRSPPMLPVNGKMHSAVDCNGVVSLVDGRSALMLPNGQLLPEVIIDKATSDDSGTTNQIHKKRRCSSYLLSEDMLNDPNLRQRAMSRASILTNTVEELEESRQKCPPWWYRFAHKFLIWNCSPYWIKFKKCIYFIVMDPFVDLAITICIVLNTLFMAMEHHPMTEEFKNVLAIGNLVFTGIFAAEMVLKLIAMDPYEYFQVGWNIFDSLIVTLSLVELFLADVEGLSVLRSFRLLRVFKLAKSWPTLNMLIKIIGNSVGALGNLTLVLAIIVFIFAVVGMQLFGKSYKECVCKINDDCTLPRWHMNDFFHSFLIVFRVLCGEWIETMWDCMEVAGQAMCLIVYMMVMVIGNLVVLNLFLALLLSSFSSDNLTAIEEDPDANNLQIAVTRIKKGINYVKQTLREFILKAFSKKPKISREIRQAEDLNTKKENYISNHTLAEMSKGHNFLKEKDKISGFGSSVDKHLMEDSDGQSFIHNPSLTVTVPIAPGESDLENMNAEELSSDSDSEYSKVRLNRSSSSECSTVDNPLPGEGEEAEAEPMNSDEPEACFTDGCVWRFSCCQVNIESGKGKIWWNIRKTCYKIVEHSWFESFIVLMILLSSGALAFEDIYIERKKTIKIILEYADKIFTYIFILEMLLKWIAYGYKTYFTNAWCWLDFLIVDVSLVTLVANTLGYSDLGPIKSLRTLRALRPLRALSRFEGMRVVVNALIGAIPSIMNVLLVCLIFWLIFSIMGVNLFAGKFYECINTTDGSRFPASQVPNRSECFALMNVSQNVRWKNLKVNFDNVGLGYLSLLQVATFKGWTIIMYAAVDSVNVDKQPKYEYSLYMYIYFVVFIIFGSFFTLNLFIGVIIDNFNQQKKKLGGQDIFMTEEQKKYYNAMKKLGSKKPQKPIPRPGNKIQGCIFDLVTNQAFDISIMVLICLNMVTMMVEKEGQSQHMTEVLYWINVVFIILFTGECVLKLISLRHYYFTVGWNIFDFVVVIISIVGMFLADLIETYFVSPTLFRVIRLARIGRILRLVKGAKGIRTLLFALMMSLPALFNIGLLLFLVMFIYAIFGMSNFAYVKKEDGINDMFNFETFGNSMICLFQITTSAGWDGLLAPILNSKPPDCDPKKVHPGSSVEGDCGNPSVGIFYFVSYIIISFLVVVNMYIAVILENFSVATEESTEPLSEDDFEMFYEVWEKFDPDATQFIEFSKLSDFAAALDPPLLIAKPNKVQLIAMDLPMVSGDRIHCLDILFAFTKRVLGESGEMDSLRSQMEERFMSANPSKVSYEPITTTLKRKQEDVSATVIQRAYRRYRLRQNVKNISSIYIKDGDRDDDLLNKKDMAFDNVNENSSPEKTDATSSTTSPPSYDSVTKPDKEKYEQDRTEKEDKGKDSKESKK
T2 sequence (Q14524 whole entry): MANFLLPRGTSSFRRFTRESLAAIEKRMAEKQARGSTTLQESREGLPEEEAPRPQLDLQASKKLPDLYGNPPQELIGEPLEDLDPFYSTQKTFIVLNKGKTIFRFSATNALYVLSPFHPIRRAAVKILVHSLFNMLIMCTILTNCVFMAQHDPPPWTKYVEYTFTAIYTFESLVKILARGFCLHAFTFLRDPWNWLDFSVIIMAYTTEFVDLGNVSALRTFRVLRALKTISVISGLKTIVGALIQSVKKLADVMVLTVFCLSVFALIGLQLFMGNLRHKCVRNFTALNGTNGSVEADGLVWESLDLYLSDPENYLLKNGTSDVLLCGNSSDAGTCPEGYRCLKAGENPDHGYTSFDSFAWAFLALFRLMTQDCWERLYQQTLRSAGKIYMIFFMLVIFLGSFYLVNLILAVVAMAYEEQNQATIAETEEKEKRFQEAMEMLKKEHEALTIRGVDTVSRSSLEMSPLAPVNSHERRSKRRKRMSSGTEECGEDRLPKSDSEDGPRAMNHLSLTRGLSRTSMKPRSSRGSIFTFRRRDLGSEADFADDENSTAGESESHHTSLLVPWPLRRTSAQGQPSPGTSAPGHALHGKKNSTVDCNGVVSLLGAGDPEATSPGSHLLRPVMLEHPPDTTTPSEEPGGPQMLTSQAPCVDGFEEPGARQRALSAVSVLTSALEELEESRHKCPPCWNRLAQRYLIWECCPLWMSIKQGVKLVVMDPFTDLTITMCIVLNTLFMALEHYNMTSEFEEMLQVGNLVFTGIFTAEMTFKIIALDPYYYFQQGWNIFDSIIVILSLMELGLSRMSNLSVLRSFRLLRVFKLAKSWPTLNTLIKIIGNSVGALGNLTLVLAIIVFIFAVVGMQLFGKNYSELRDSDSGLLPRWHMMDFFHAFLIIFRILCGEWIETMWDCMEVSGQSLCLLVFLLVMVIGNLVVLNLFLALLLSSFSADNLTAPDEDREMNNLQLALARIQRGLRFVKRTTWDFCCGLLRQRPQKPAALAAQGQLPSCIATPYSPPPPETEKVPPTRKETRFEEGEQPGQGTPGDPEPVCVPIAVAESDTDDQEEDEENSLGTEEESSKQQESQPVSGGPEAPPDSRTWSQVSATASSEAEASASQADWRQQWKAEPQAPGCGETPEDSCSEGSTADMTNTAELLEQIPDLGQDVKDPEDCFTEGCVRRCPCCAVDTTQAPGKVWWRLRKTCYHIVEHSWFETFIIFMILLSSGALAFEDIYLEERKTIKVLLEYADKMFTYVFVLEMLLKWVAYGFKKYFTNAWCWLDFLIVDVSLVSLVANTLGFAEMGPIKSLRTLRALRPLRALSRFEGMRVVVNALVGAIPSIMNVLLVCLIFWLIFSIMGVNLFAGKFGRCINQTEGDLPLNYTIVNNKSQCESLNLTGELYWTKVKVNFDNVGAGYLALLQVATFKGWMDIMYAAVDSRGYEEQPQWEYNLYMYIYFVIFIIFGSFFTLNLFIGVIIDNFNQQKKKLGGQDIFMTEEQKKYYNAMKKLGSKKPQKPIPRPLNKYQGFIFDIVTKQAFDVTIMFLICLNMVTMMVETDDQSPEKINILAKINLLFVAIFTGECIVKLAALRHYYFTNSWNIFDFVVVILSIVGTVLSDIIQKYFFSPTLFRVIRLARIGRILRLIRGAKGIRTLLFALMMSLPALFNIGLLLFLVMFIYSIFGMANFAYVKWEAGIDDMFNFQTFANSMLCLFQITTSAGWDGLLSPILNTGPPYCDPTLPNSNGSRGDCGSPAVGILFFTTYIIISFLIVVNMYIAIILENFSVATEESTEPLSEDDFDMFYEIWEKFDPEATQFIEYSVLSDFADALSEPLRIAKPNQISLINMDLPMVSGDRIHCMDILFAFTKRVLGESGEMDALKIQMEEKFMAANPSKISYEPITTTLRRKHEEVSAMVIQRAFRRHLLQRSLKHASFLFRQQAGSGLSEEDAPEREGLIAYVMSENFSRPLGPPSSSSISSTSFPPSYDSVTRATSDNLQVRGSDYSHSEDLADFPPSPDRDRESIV

As for `CC(C)N1C(=O)C(NC(=O)C(Cc2ccccc2F)NC(=O)c2ccc(F)cc2C(F)(F)F)CCc2cc(Cl)ccc21` [N—[(R)-1-(R)-7-chloro-1-isopropyl-2-oxo-2,3,4,5-tetrahydro-1H-benzo[b]azepine-3-ylcarbamoyl)-2-(2-fluorophenyl)-ethyl]-4-fluoro-2-trifluoromethyl-benzamide], the IC50 at hNav1.7 [1] was 30 nM; at hNav1.8 it was 300 nM; at hNav1.7 [2], 550 nM; on hNav1.5 [3], 4300 nM; at hNav1.5 [4], 180 nM.

`NCC1(CC(=O)O)CCCCC1` [gabapentin]: in series [5], the reduction of pain is not above 50% and the “share of patients with that pain reduction” value is recorded as “about 40%”.
